How the values were obtained:
HT1080 cells = assay: Cell adhesion assay on coated plates (HT1080 cells); type: cell-based, human; details: data not shown
RD cells = assay: Cell adhesion assay on coated plates (RD cells); type: cell-based, human
Description: A cell adhesion assay was performed as described in Sato, Y. , Uemura, T., Morimitsu, K., Sato-Nishiuchi, R., Manabe, R., Takagi, J., Yamada, M., and Sekiguchi, K. (2009) J. Biol. Chem. 284, 14524-14536. For an assay involving blocking antibodies, RD cells (human rhabdomyosarcoma cells) were preincubated with monoclonal antibodies of interest at room temperature for 15 minutes and plated on 96-well plates coated with recombinant polydom proteins or fibronectin. The cells were incubated for 30 minutes, washed, fixed with 3.7% formaldehyde, and stained with 0.5% toluidine blue.
The cells were plated on 96-well plates coated with serial diluted concentrations of full-length polydom, pol-N, pol-C or plasma fibronectin (FN) and incubated at 37° C. for 30 minutes. After washing out unattached cells, attached cells were fixed and stained with toluidine blue. The attached cells were counted under a microscope. The assay was performed in triplicate.

polydom: recombinant mouse SVEP1 (SEQ ID NO: 2), ECM protein, ligand for integrin α9β1
adhesion of HT1080 cells (HT1080 cells): did not adhere | coating concentration attaining the maximum adhesion of RD cells (RD cells; 96-well plates, 37° C. for 30 minutes, FIG. 4): 3 µg/mL | promotion of RD cell adhesion (RD cells; coated 96-well plates, 37° C. for 30 minutes, FIG. 4): coating concentration-dependent manner | morphology of attached RD cells (RD cells; microscopic observation, FIG. 5): exhibited spread morphology

— patent publication US20150086557A1, “NOVEL INTEGRIN alpha9 beta1 LIGAND AND USES THEREOF” (OSAKA UNIVERSITY, priority 2012, published 2015)
